Measured values taken from patent publication US4657913A, “Trifluoro- quinoline -3-carboxylic acids and their use as anti-bacterial agents” (Warner-Lambert Company, priority 1985, dated 1987).
Converted amounts (≈) assume the structure as drawn.

Assays:
Assay in all cases: microtitration dilution method, in vitro antibacterial activity (MIC)
Format in all cases: cell-based
[1] = test system: Enterobacter cloacae MA 2646; settings: MA2646, read-out: Minimal Inhibitory Concentration MIC
Description: (§1) The compounds of the invention display antibacterial activity when tested by the microtitration dilution method as described in Heifetz, et al, Antimicr. Agents & Chemoth., 6, 124 (1974), which is incorporated herein by reference.
(§2) By use of the above referenced method, the following minimum inhibitory concentration values (MICs in μg/ml) were obtained for representative compounds of the invention.

[2] = test system: Escherichia coli Vogel; settings: read-out: Minimal Inhibitory Concentration MIC
Description: as §1, §2

[3] = test system: Klebsiella pneumoniae MGH-2; settings: MGH2, read-out: Minimal Inhibitory Concentration MIC
Description: as §1, §2

[4] = test system: Proteus rettgeri M 1771; settings: Providencia rettgeri, M1771, read-out: Minimal Inhibitory Concentration MIC
Description: as §1, §2

[5] = test system: Pseudomonas aeruginosa UI-18; settings: UI18, read-out: Minimal Inhibitory Concentration MIC
Description: as §1, §2

[6] = test system: Staphlococcus aureus H 228; settings: read-out: Minimal Inhibitory Concentration MIC
Description: as §1, §2

[7] = test system: Staphylococcus aureus UC-76; settings: UC76, read-out: Minimal Inhibitory Concentration MIC
Description: as §1, §2

[8] = test system: Streptococcus faecalis MGH-2; settings: Enterococcus faecalis, MGH2, read-out: Minimal Inhibitory Concentration MIC
Description: as §1, §2

[9] = test system: Streptococcus pneumoniae SV-1; settings: SV1, read-out: Minimal Inhibitory Concentration MIC
Description: as §1, §2

[10] = test system: Streptococcus pyogenes C-203; settings: C203, read-out: Minimal Inhibitory Concentration MIC
Description: as §1, §2

Row | SMILES | MIC [1] | MIC [2] | MIC [3] | MIC [4] | MIC [5] | MIC [6] | MIC [7] | MIC [8] | MIC [9] | MIC [10]
1 | CCn1cc(C(=O)O)c(=O)c2c(F)c(F)c(N3CCC(CNC)C3)c(F)c21 (centres unmarked) [Ex. 1C, 1-Ethyl-5,6,8-trifluoro-1,4-dihydro-7-[3-[(methylamino)methyl]-1-pyrrolidinyl]-4-oxo-3-quinolinecarboxylic acid] | 1.6 µg/mL (≈ 4.17 µM) | 0.4 µg/mL (≈ 1.04 µM) | 0.8 µg/mL (≈ 2.09 µM) | 6.3 µg/mL (≈ 16.4 µM) | 3.1 µg/mL (≈ 8.09 µM) | 0.8 µg/mL (≈ 2.09 µM) | 0.05 µg/mL (≈ 0.13 µM) | 0.8 µg/mL (≈ 2.09 µM) | 0.4 µg/mL (≈ 1.04 µM) | 0.2 µg/mL (≈ 0.522 µM)
2 | CCn1cc(C(=O)O)c(=O)c2c(F)c(F)c(N3CCC(CN)C3)c(F)c21 (centres unmarked) [Ex. 1A, 7-[3-(Aminomethyl)-1-pyrrolidinyl]-1-ethyl-5,6,8-trifluoro-1,4-dihydro-4-oxo-3-quinolinecarboxylic acid] | 0.8 µg/mL (≈ 2.17 µM) | 0.8 µg/mL (≈ 2.17 µM) | 0.8 µg/mL (≈ 2.17 µM) | 3.1 µg/mL (≈ 8.39 µM) | 3.1 µg/mL (≈ 8.39 µM) | 1.6 µg/mL (≈ 4.33 µM) | 0.8 µg/mL (≈ 2.17 µM) | 0.8 µg/mL (≈ 2.17 µM) | ≤ 0.1 µg/mL | ≤ 0.1 µg/mL
3 | CCNCC1CCN(c2c(F)c(F)c3c(=O)c(C(=O)O)cn(CC)c3c2F)C1 (centres unmarked) [Ex. 1D, 1-Ethyl-7-[3-[(ethylamino)methyl]-1-pyrrolidinyl]-5,6,8-trifluoro-1,4-dihydro-4-oxo-3-quinolinecarboxylic acid] | 0.4 µg/mL (≈ 1.01 µM) | 0.4 µg/mL (≈ 1.01 µM) | 0.8 µg/mL (≈ 2.01 µM) | 0.8 µg/mL (≈ 2.01 µM) | 6.3 µg/mL (≈ 15.9 µM) | 0.4 µg/mL (≈ 1.01 µM) | 0.013 µg/mL (≈ 0.0327 µM) | 0.2 µg/mL (≈ 0.503 µM) | 0.2 µg/mL (≈ 0.503 µM) | 0.2 µg/mL (≈ 0.503 µM)
4 | CCn1cc(C(=O)O)c(=O)c2c(F)c(F)c(N3CCC4(CCN(C)C4)C3)c(F)c21 (centres unmarked) [Ex. 1B, 1-Ethyl-5,6,8-trifluoro-1,4-dihydro-7-(7-methyl-2,7-diazaspiro[4.4]nonan-2-yl)-4-oxo-3-quinolinecarboxylic acid] | 0.8 µg/mL (≈ 1.95 µM) | 0.8 µg/mL (≈ 1.95 µM) | 1.6 µg/mL (≈ 3.91 µM) | 6.3 µg/mL (≈ 15.4 µM) | 6.3 µg/mL (≈ 15.4 µM) | 0.8 µg/mL (≈ 1.95 µM) | 0.2 µg/mL (≈ 0.489 µM) | 1.6 µg/mL (≈ 3.91 µM) | 0.8 µg/mL (≈ 1.95 µM) | 1.6 µg/mL (≈ 3.91 µM)
5 | CCNCC1CCN(c2c(F)c(F)c3c(=O)c(C(=O)O)cn(C4CC4)c3c2F)C1 (centres unmarked) [Ex. 2A, 1-Cyclopropyl-7-[3-[(ethylamino)methyl]-1-pyrrolidinyl]-5,6,8-trifluoro-1,4-dihydro-4-oxo-3-quinolinecarboxylic acid] | 0.4 µg/mL (≈ 0.977 µM) | 0.2 µg/mL (≈ 0.489 µM) | 0.4 µg/mL (≈ 0.977 µM) | 1.6 µg/mL (≈ 3.91 µM) | 3.1 µg/mL (≈ 7.57 µM) | 0.2 µg/mL (≈ 0.489 µM) | 0.025 µg/mL (≈ 0.0611 µM) | 0.2 µg/mL (≈ 0.489 µM) | 0.2 µg/mL (≈ 0.489 µM) | 0.1 µg/mL (≈ 0.244 µM)
